Measured values published in PubChem BioAssay AID1963836 (Molecular Pharmacology Branch, DTP, NCI, 2024).
pIC50: −log10 of the molar value.

Test system: 857933-349-R-J2-PDC complex spheroid viability
Experiment: Anticancer human tumor 857933-349-R-J2-PDC patient-derived colon adenocarcinoma cell line growth inhibition [POLQ]
Conditions: for pIC50: curve of first compound; for viability, T/C: stronger effect = lower value
Method in brief: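 Growth inhibition in 3D: complex spheroids (tumor PDC, HUVEC, MSC) treated with POLQ inhibitor combinations; where Cmax unknown, highest tested concentration 10 microM, except SN-38 at 1 microM.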

[1] = second compound 0.0316 µM, first compound 0.0316 µM
[2] = second compound 0.0316 µM, first compound 0.1 µM
[3] = second compound 0.0316 µM, first compound 0.316 µM
[4] = second compound 0.0316 µM, first compound 1 µM
[5] = second compound 0.0316 µM, first compound 3.16 µM
[6] = second compound 0.0316 µM, first compound 10 µM
[7] = second compound 0.1 µM, first compound 0.0316 µM
[8] = second compound 0.1 µM, first compound 0.1 µM
[9] = second compound 0.1 µM, first compound 0.316 µM
[10] = second compound 0.1 µM, first compound 1 µM
[11] = second compound 0.1 µM, first compound 3.16 µM
[12] = second compound 0.1 µM, first compound 10 µM
[13] = second compound 0.316 µM, first compound 0.0316 µM
[14] = second compound 0.316 µM, first compound 0.1 µM
[15] = second compound 0.316 µM, first compound 0.316 µM
[16] = second compound 0.316 µM, first compound 1 µM
[17] = second compound 0.316 µM, first compound 3.16 µM
[18] = second compound 0.316 µM, first compound 10 µM
[19] = second compound 1 µM, first compound 0.0316 µM
[20] = second compound 1 µM, first compound 0.1 µM
[21] = second compound 1 µM, first compound 0.316 µM
[22] = second compound 1 µM, first compound 1 µM
[23] = second compound 1 µM, first compound 3.16 µM
[24] = second compound 1 µM, first compound 10 µM
[25] = second compound 3.16 µM, first compound 0.0316 µM
[26] = second compound 3.16 µM, first compound 0.1 µM
[27] = second compound 3.16 µM, first compound 0.316 µM
[28] = second compound 3.16 µM, first compound 1 µM
[29] = second compound 3.16 µM, first compound 3.16 µM
[30] = second compound 3.16 µM, first compound 10 µM
[31] = second compound 10 µM, first compound 0.0316 µM
[32] = second compound 10 µM, first compound 0.1 µM
[33] = second compound 10 µM, first compound 0.316 µM
[34] = second compound 10 µM, first compound 1 µM
[35] = second compound 10 µM, first compound 3.16 µM
[36] = second compound 10 µM, first compound 10 µM
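Further: spheroids exposed to compounds for seven days before readout.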

O=C(Nc1ccc(O)c(NS(=O)(=O)c2ccc(F)cc2)c1)c1ccc(-c2ccccc2)cc1 + COC1C(OC(N)=O)C(O)C(Oc2ccc3c(O)c(NC(=O)c4ccc(O)c(CC=C(C)C)c4)c(=O)oc3c2C)OC1(C)C
pIC50 (second compound 0.0316 µM): < 5.00
pIC50 (second compound 0.1 µM): < 5.00
pIC50 (second compound 0.316 µM): < 5.00
pIC50 (second compound 1 µM): < 5.00
pIC50 (second compound 3.16 µM): < 5.00
pIC50 (second compound 10 µM): < 5.00
viability, T/C [1]: 70.1%
viability, T/C [2]: 105%
viability, T/C [3]: 92.3%
viability, T/C [4]: 89.2%
viability, T/C [5]: 80.7%
viability, T/C [6]: 78.6%
viability, T/C [7]: 116%
viability, T/C [8]: 95.9%
viability, T/C [9]: 94.1%
viability, T/C [10]: 92.3%
viability, T/C [11]: 114%
viability, T/C [12]: 101%
viability, T/C [13]: 96%
viability, T/C [14]: 85.5%
viability, T/C [15]: 65.9%
viability, T/C [16]: 65.5%
viability, T/C [17]: 113%
viability, T/C [18]: 84.1%
viability, T/C [19]: 79.5%
viability, T/C [20]: 91.1%
viability, T/C [21]: 81.1%
viability, T/C [22]: 72.9%
viability, T/C [23]: 109%
viability, T/C [24]: 80.7%
viability, T/C [25]: 101%
viability, T/C [26]: 86.9%
viability, T/C [27]: 113%
viability, T/C [28]: 99.2%
viability, T/C [29]: 85.3%
viability, T/C [30]: 61.5%
viability, T/C [31]: 76.2%
viability, T/C [32]: 88.7%
viability, T/C [33]: 99.8%
viability, T/C [34]: 82.8%
viability, T/C [35]: 77.9%
viability, T/C [36]: 68.8%

CCc1cc2c(N3CCc4c(cc(Cn5ccnc5)cc4-c4cn(C)nc4C(F)(F)F)C3=O)ccnc2c(OC)n1 + Cc1cccc(N(C)C(=O)C2C(O)CCN2c2nc(C)cc(C(F)(F)F)c2C#N)c1
pIC50 (second compound 0.0316 µM): < 5.00
pIC50 (second compound 0.1 µM): < 5.00
pIC50 (second compound 0.316 µM): < 5.00
pIC50 (second compound 1 µM): < 5.00
pIC50 (second compound 3.16 µM): < 5.00
pIC50 (second compound 10 µM): < 5.00
viability, T/C [1]: 104%
viability, T/C [2]: 91%
viability, T/C [3]: 94.5%
viability, T/C [4]: 82%
viability, T/C [5]: 77.7%
viability, T/C [6]: 63.1%
viability, T/C [7]: 91.6%
viability, T/C [8]: 92.8%
viability, T/C [9]: 75.9%
viability, T/C [10]: 79.5%
viability, T/C [11]: 77%
viability, T/C [12]: 54.8%
viability, T/C [13]: 96.5%
viability, T/C [14]: 100%
viability, T/C [15]: 92.4%
viability, T/C [16]: 97.8%
viability, T/C [17]: 79.7%
viability, T/C [18]: 61.1%
viability, T/C [19]: 122%
viability, T/C [20]: 103%
viability, T/C [21]: 93.1%
viability, T/C [22]: 83.3%
viability, T/C [23]: 82.5%
viability, T/C [24]: 72.3%
viability, T/C [25]: 97.8%
viability, T/C [26]: 80.1%
viability, T/C [27]: 83%
viability, T/C [28]: 88.7%
viability, T/C [29]: 79.2%
viability, T/C [30]: 84.8%
viability, T/C [31]: 96.3%
viability, T/C [32]: 96.3%
viability, T/C [33]: 80.1%
viability, T/C [34]: 73.6%
viability, T/C [35]: 76.3%
viability, T/C [36]: 61.9%

CC1COCCN1c1cc(C2(O)CC3CCC(C2)O3)c2cnn(-c3ccn[nH]3)c2n1 (stereo unspecified) + Cc1cccc(N(C)C(=O)C2C(O)CCN2c2nc(C)cc(C(F)(F)F)c2C#N)c1
pIC50 (second compound 0.0316 µM): 6.61
pIC50 (second compound 0.1 µM): 6.44
pIC50 (second compound 0.316 µM): 6.54
pIC50 (second compound 1 µM): 6.69
pIC50 (second compound 3.16 µM): 6.57
pIC50 (second compound 10 µM): 6.64
viability, T/C [1]: 73.2%
viability, T/C [2]: 56.1%
viability, T/C [3]: 50.3%
viability, T/C [4]: 41.7%
viability, T/C [5]: 42.7%
viability, T/C [6]: 43.6%
viability, T/C [7]: 60.5%
viability, T/C [8]: 62.9%
viability, T/C [9]: 50.1%
viability, T/C [10]: 38.3%
viability, T/C [11]: 50.1%
viability, T/C [12]: 59.1%
viability, T/C [13]: 76.4%
viability, T/C [14]: 69.9%
viability, T/C [15]: 48.4%
viability, T/C [16]: 45.9%
viability, T/C [17]: 41.3%
viability, T/C [18]: 48.7%
viability, T/C [19]: 67.1%
viability, T/C [20]: 59.5%
viability, T/C [21]: 38.4%
viability, T/C [22]: 43.4%
viability, T/C [23]: 46.6%
viability, T/C [24]: 47.5%
viability, T/C [25]: 60.5%
viability, T/C [26]: 62.5%
viability, T/C [27]: 47.6%
viability, T/C [28]: 41.1%
viability, T/C [29]: 54.4%
viability, T/C [30]: 49.3%
viability, T/C [31]: 56.3%
viability, T/C [32]: 55.9%
viability, T/C [33]: 50.5%
viability, T/C [34]: 36.9%
viability, T/C [35]: 51.7%
viability, T/C [36]: 40.1%
